Measured values reported in patent publication US20210154281A1, “CELL-BASED CANCER VACCINES AND CANCER THERAPIES” (Massachusetts Institute of Technology, priority 2019, published 2021).
Where two headings read alike, the source gives them in different places.

Assays:
Assay type in all cases: cell-based, mouse
[1] = system: B16F10 melanoma tumor cell line; assay: Cell death by AnnexinV/DAPI staining 48 hours after drug treatment; conditions: for cell death by DAPI and Annexin V staining: at the concentrations used
Method: For assessment of cell death, floating and attached cells were harvested after 48 hours of treatment with the indicated chemotherapeutic drugs. Attached cells were detached using 5 mM EDTA in PBS. The recovered cells were centrifuged at 250×g for 5 minutes, washed once in PBS containing 0.9 mM Ca2+ and 0.5 mM Mg2+ and then stained with AnnV-FITC for 15 minutes in Annexin binding buffer at room temperature according to the manufacturer's protocol (Biolegend). Cells were co-stained with DAPI at a final concentration of 1 μg/ml for 2 minutes in Annexin binding buffer, brought to a final volume of 500 ul using PBS containing 0.9 mM Ca2^+ and 0.5 mM Mg2^+ and analyzed by flow cytometry.
To identify how DNA-damaging chemotherapy could be optimally used to enhance anti-tumor immune function, cytotoxicity assays were performed using the B16F10 melanoma tumor cell line expressing ovalbumin (B16-Ova). Cells were treated with clinically used chemotherapeutic agents followed by assaying for cell death by DAPI and Annexin V staining 48 hours later.

B16-Ova cells = assay: In vitro cross presentation assay: drug-treated B16-Ova cells, BMDC and OT-1 CD8+ T-cells, IFN-γ+ T-cells by flow cytometry; design: reduction of the percentage of IFNg+ T-cells by siRNA knockdown of calreticulin / reduction of T-cell IFN-γ responses / frequency of IFN-γ+ T-cells: concentration or dose not given beside the values
Method: B16-Ova or MC-38 Ova cells were treated with various doses of chemotherapeutic drugs for 24 h followed by extensive washing in IMDM (10% FBS, P/S). Subsequently 1×10^6 treated cells were co-cultured with 2.5×10^5 BMDC per well of a 24-well plate for each condition tested. After 24 hours of co-culture, supernatants were removed from each well and the BMDC washed 2-3 times in T-cell media (RPMI containing 10% FBS, 20 mM HEPES, 1 mM sodium pyruvate, 55 uM b-mercaptoethanol, 2 mM L-glutamine, nonessential amino acids and antibiotics). CD8+OT-I T-cells isolated from spleens of OT-I mice were then co-cultured with the BMDC at 125,000 T-cells per well to achieve an effector to target ratio of 0.5. Where indicated, BMDC and/or T-cells were also exposed to chemotherapy drugs. After a 12-15 h incubation, IFN-g producing T-cells were identified and quantified by intra-cellular cytokine staining and flow cytometry using a BD LSR II or Fortessa flow cytometer. Cells were first gated for CD3 expression, then re-gated for CD8 and IFNg expression.
An experimental system was developed to assess dendritic cell-mediated T-cell priming using the B16-Ova cells, in combination with primary bone-marrow derived dendritic cells (BMDC) and OT-I CD8+ T-cells expressing a TCR transgene that specifically recognizes the Ova-derived peptide […] (SEQ ID NO:1) in the context of H2-Kb (OT-1) (Clarke, et al., Immunol Cell Biol., 78(2):110-7 (2000); Hogquist, et al., Cell, 76(1):17-27 (1994)). […] The treated B16-Ova cells/BMDC co-culture was then incubated with purified CD8+ T-cells obtained from the spleens of OT-1 mice, and the appearance of IFNg+CD8 T-cells was measured 12-15 hours later by intracellular staining and subsequent quantification using flow cytometry.

[2] = Cell viability (survival) assay with CellTiter-Glo, 48 hours; conditions: mouse, 48 hours, normalized to DMSO-treated control cells
Method: (§1) For assays of survival, 15,000 cells were plated per well in a 96-well plate in 100 μl media with 5 replicates per condition. Wells along the four edges of the plate were not used. Following cell attachment, the indicated drugs were added in an equal volume of media, and incubated for an additional 48 hours. The media was then removed and replaced with 100 ul of fresh media at room temperature. Following a 30 minute incubation at room temperature, 50 μl of CellTiter-Glo reagent was added, followed by 2 minutes of gentle mixing. The plate was incubated at room temperature for an additional 10 minutes. 100 μl of supernatant was transferred to a 96-well white opaque plate and luminescence was read on a Tecan microplate reader. Values were normalized to those of DMSO-treated control cells.

[3] = system: B16F10 melanoma tumor cell line; assay: as above; conditions: for growth arrest: at the concentrations used; for Cell viability (%) MEAN: 48 hours, normalized to DMSO-treated control cells
Method: as §1

[4] = co-treatment of B16-Ova cells with etoposide
[5] = co-treatment of B16-Ova cells with mitoxantrone
[6] = Mus musculus, B16-F10, 48 h, read-out: AnnV+DAPI+ (%) Mean
[7] = Mus musculus, B16-F10, 48 h, read-out: AnnV+DAPI− (%) Mean
[8] = Mus musculus, B16-F10, 48 h, read-out: AnnV−DAPI+ (%) Mean
[9] = Mus musculus, B16-F10, 48 h, read-out: AnnV−DAPI− (%) Mean

N.N.[Cl][Pt][Cl] [Cis, cisplatin]
AnnV+DAPI+ (%) Mean ([1]; 10 uM, 48 hours): 2.76%
AnnV+DAPI− (%) Mean ([1]; 10 uM, 48 hours): 3.68%
AnnV−DAPI+ (%) Mean ([1]; 10 uM, 48 hours): 0.32%
AnnV−DAPI− (%) Mean ([1]; 10 uM, 48 hours): 93.25%
AnnV+DAPI+ (%) Mean ([1]; 50 uM, 48 hours): 18.75%
AnnV+DAPI− (%) Mean ([1]; 50 uM, 48 hours): 46.80%
AnnV−DAPI+ (%) Mean ([1]; 50 uM, 48 hours): 2.96%
AnnV−DAPI− (%) Mean ([1]; 50 uM, 48 hours): 31.55%
cell death by DAPI and Annexin V staining ([1]; 48 hours): caused varying extents of apoptotic and non-apoptotic cell death

Cc1ccc(-c2ccc3c(ccc4sc5c(c43)NC[C@@H](C)NC5=O)n2)cn1 [PF-3644022]
BMDC-mediated T-cell priming (B16-Ova cells; [4]): enhances BMDC-mediated T-cell priming

CC[C@@]1(O)C(=O)OCc2c1cc1n(c2=O)Cc2cc3ccccc3nc2-1 [CPT, camptothecin]
cell death by DAPI and Annexin V staining ([1]; 48 hours): did not induce substantial amounts of cell death
cytotoxicity at 0.05 µM ([1]; Mus musculus, B16-F10, 50 nM, 48 hours, read-out: AnnV+DAPI+ (%) Mean): 7.03%
cytotoxicity at 0.05 µM ([1]; Mus musculus, B16-F10, 50 nM, 48 hours, read-out: AnnV+DAPI− (%) Mean): 1.26%
cytotoxicity at 0.05 µM ([1]; Mus musculus, B16-F10, 50 nM, 48 hours, read-out: AnnV−DAPI+ (%) Mean): 1.35%
viability at 0.05 µM ([1]; Mus musculus, B16-F10, 50 nM, 48 hours, read-out: AnnV−DAPI− (%) Mean): 90.4%
cytotoxicity at 0.25 µM ([1]; Mus musculus, B16-F10, 250 nM, 48 hours, read-out: AnnV+DAPI+ (%) Mean): 4.71%
cytotoxicity at 0.25 µM ([1]; Mus musculus, B16-F10, 250 nM, 48 hours, read-out: AnnV+DAPI− (%) Mean): 4.35%
cytotoxicity at 0.25 µM ([1]; Mus musculus, B16-F10, 250 nM, 48 hours, read-out: AnnV−DAPI+ (%) Mean): 0.58%
viability at 0.25 µM ([1]; Mus musculus, B16-F10, 250 nM, 48 hours, read-out: AnnV−DAPI− (%) Mean): 90.3%
viability at 48 h, 0.25 µM ([2]; B16F10 melanoma tumor cells, 0.25 uM): 77.6%
viability at 48 h, 0.05 uM ([2]; B16F10 melanoma tumor cells, .05 uM): 91.1%

CC(C)(C)c1ccc(S(=O)(=O)/C=C/C#N)cc1 [Bay11-7085]
BMDC-mediated T-cell priming (B16-Ova cells; [4]): inhibits BMDC-mediated T-cell priming
reduction of T-cell IFN-γ responses / frequency of IFN-γ+ T-cells (B16-Ova cells; [4]): > 90%
reduction of T-cell IFN-γ responses / frequency of IFN-γ+ T-cells (B16-Ova cells; [5]): > 50%

CC(=O)O[C@H]1C(=O)[C@@]2(C)[C@H]([C@H](OC(=O)c3ccccc3)[C@]3(O)C[C@H](OC(=O)[C@H](O)[C@@H](NC(=O)c4ccccc4)c4ccccc4)C(C)=C1C3(C)C)[C@]1(OC(C)=O)CO[C@@H]1C[C@@H]2O [Pac, paclitaxel]
cell death by DAPI and Annexin V staining ([1]; 48 hours): did not induce substantial amounts of cell death
cytotoxicity at 0.2 µM ([1]; Mus musculus, B16-F10, 200 nM, 48 hours, read-out: AnnV+DAPI+ (%) Mean): 4.79%
cytotoxicity at 0.2 µM ([1]; Mus musculus, B16-F10, 200 nM, 48 hours, read-out: AnnV+DAPI− (%) Mean): 7.2%
cytotoxicity at 0.2 µM ([1]; Mus musculus, B16-F10, 200 nM, 48 hours, read-out: AnnV−DAPI+ (%) Mean): 2.18%
viability at 0.2 µM ([1]; Mus musculus, B16-F10, 200 nM, 48 hours, read-out: AnnV−DAPI− (%) Mean): 85.8%
cytotoxicity at 1 µM ([1]; Mus musculus, B16-F10, 1 uM, 48 hours, read-out: AnnV+DAPI+ (%) Mean): 2.98%
cytotoxicity at 1 µM ([1]; Mus musculus, B16-F10, 1 uM, 48 hours, read-out: AnnV+DAPI− (%) Mean): 3.03%
cytotoxicity at 1 µM ([1]; Mus musculus, B16-F10, 1 uM, 48 hours, read-out: AnnV−DAPI+ (%) Mean): 2.79%
viability at 1 µM ([1]; Mus musculus, B16-F10, 1 uM, 48 hours, read-out: AnnV−DAPI− (%) Mean): 91.2%
viability at 48 h, 0.2 µM ([2]; B16F10 melanoma tumor cells, 0.2 uM): 69.8%
viability at 48 h, 1 µM ([2]; B16F10 melanoma tumor cells, 1 uM): 74%
growth arrest [3]: caused some degree of growth arrest

O=c1[nH]cc(F)c(=O)[nH]1 [5-FU, 5-fluorouracil]
cell death by DAPI and Annexin V staining ([1]; 48 hours): caused varying extents of apoptotic and non-apoptotic cell death
cytotoxicity at 10 µM ([1]; Mus musculus, B16-F10, 10 uM, 48 hours, read-out: AnnV+DAPI+ (%) Mean): 5.29%
cytotoxicity at 10 µM ([1]; Mus musculus, B16-F10, 10 uM, 48 hours, read-out: AnnV+DAPI− (%) Mean): 9.5%
cytotoxicity at 10 µM ([1]; Mus musculus, B16-F10, 10 uM, 48 hours, read-out: AnnV−DAPI+ (%) Mean): 1.23%
viability at 10 µM ([1]; Mus musculus, B16-F10, 10 uM, 48 hours, read-out: AnnV−DAPI− (%) Mean): 84%
cytotoxicity at 50 µM ([1]; Mus musculus, B16-F10, 50 uM, 48 hours, read-out: AnnV+DAPI+ (%) Mean): 6.78%
cytotoxicity at 50 µM ([1]; Mus musculus, B16-F10, 50 uM, 48 hours, read-out: AnnV+DAPI− (%) Mean): 28.1%
cytotoxicity at 50 µM ([1]; Mus musculus, B16-F10, 50 uM, 48 hours, read-out: AnnV−DAPI+ (%) Mean): 1.33%
viability at 50 µM ([1]; Mus musculus, B16-F10, 50 uM, 48 hours, read-out: AnnV−DAPI− (%) Mean): 63.9%
viability at 48 h, 10 µM ([2]; B16F10 melanoma tumor cells, 10 uM): 49%
viability at 48 h, 50 µM ([2]; B16F10 melanoma tumor cells, 50 uM): 42.8%

CN1C(=O)C(Cc2c[nH]c3ccccc23)NC1=S (stereo not drawn) [necrostatin-1]
ability of drug-treated B16-Ova cells co-cultured with BMDCs to induce IFN-g in T-cells (B16-Ova cells; co-treatment with etoposide or mitoxantrone): inhibited the ability of both etoposide and mitoxantrone-treated B16-Ova cells

Z-VAD
reduction of T-cell IFN-γ responses / frequency of IFN-γ+ T-cells (B16-Ova cells; [4]): ~12%
reduction of T-cell IFN-γ responses / frequency of IFN-γ+ T-cells (B16-Ova cells; [5]): no effect

O=C1[O][Pt]2([NH][C@@H]3CCCC[C@H]3[NH]2)[O]C1=O [Oxal, oxaliplatin]
AnnV+DAPI+ (%) Mean ([1]; 10 uM, 48 hours): 1.73%
AnnV+DAPI− (%) Mean ([1]; 10 uM, 48 hours): 2.65%
AnnV−DAPI+ (%) Mean ([1]; 10 uM, 48 hours): 1.11%
AnnV−DAPI− (%) Mean ([1]; 10 uM, 48 hours): 94.50%
AnnV+DAPI+ (%) Mean ([1]; 50 uM, 48 hours): 4.25%
AnnV+DAPI− (%) Mean ([1]; 50 uM, 48 hours): 4.23%
AnnV−DAPI+ (%) Mean ([1]; 50 uM, 48 hours): 1.09%
AnnV−DAPI− (%) Mean ([1]; 50 uM, 48 hours): 90.45%
cell death by DAPI and Annexin V staining ([1]; 48 hours): did not induce substantial amounts of cell death
Cell viability (%) MEAN ([3]; 10 uM): 45.09%
Cell viability (%) MEAN ([3]; 50 uM): 44.21%
growth arrest [3]: caused some degree of growth arrest

Oc1ccc(-c2nc(-c3ccncc3)c(-c3ccc(F)cc3)[nH]2)cc1 [SB202190]
reduction of T-cell IFN-γ responses / frequency of IFN-γ+ T-cells (B16-Ova cells; [4]): ~22%
reduction of T-cell IFN-γ responses / frequency of IFN-γ+ T-cells (B16-Ova cells; [5]): nearly abrogated

O=P1(N(CCCl)CCCl)NCCCO1 (stereo not drawn) [CPM, cyclophosphamide]
cell death by DAPI and Annexin V staining ([1]; 48 hours): did not induce substantial amounts of cell death
cytotoxicity at 40 µM [1, 6]: 7.7%
cytotoxicity at 200 µM [1, 6]: 11%
cytotoxicity at 40 µM [1, 7]: 1.44%
cytotoxicity at 200 µM [1, 7]: 1.09%
cytotoxicity at 40 µM [1, 8]: 0.82%
cytotoxicity at 200 µM [1, 8]: 0.88%
viability at 40 µM [1, 9]: 90%
viability at 200 µM [1, 9]: 87%
viability at 48 h, 40 µM ([2]; 40 uM): 98.5%
viability at 48 h, 200 µM ([2]; 200 uM): 101%
